# Reference: US20260007613A1, “LONG-ACTING LOW-TOXICITY NOVEL CATIONIC LIPID COMPOUNDS AND COMPOSITION THEREOF” (BEIJING YOUCAREKECHUANG PHARMACEUTICAL TECHNOLOGY CO., LTD., priority 2023, published 2026)
# Tests used:
# 293T cells [1] = experiment: Fluorescent detection of Fluc-mRNA (cell transfection efficiency of LNP formulations); format: cell-based
# Procedure: (§1) Cell recovery and passage: 293T cells were recovered, cultured in a culture dish, and passaged to the required number of cells.
# (§2) Seeding plate: The cells in the culture dish were digested and counted. Cells were spread in a 96-well plate at 10,000 cells per well and in a 12-well plate at 150,000 cells per well. Cells were cultured overnight until the cells adhered to the wall.
# (§3) Cell recovery and passage: the method was the same as in Example 3.
# (§4) Seeding plate: the method was the same as in Example 3.
# An LNP formulation containing […] of Fluc-mRNA (the carrier components of the LNP formulation were cationic lipid, neutral lipid, structured lipid and polymer-conjugated lipid with a molar ratio of 49:10:39.5:1.5, wherein the cationic lipid was listed in Table 1) was added to the cell culture medium of a 96-well plate, and further incubated for 24 hours. The corresponding reagent was added according to the instructions of the […] Luciferase Assay Kit, and the fluorescence expression intensity of each well was detected by an IVIS fluorescence detection system. This test verified the transfection efficiencies of LNP formulations in cells, see Tables 4-7 for specific test results.
# female BALB/C mice = experiment: Live imaging in mice: protein expression of Fluc-mRNA delivered by LNP formulations; format: in vivo
# Procedure: In addition, the protein expression and duration of mRNA in mice delivered by the cationic lipid delivery carriers designed were also verified.
# The LNP formulation containing […] Fluc-mRNA was injected intramuscularly into female BALB/C mice aged 4 to 6 weeks old and weighed 17 to 19 g, and the mice were intraperitoneally injected with fluorescent imaging substrate at specific time points after administration (6 h, 24 h, 48 h and 7 d), where the mice were free to move for 5 minutes, and then the average radiation intensity (corresponding to fluorescence expression intensity) of the protein expression of the mRNA carried by the LNP in the mice was detected by the IVIS Spectrum small animal live imaging device.
# 293T cells [2] = experiment: Cell survival rate determination (CCK-8); format: cell-based; conditions: LNP formulation of Fluc-mRNA, 24 hours, CCK-8
# Procedure: as §1, §2, §3, §4
# An LNP formulation containing […] of Fluc-mRNA (the carrier components of the LNP formulation were cationic lipid, neutral lipid, structured lipid and polymer-conjugated lipid with a molar ratio of 49:10:39.5:1.5, wherein the cationic lipid was listed in Table 1) and the formulation of Lipofectamine 3000 were added to the cell culture medium of a 96-well plate, and further cultivated for 24 hours. 10 μL of CCK-8 solution was then added to each well, and the culture plate was incubated in an incubator for 1 hour. The absorbance at 450 nm was measured by a microplate reader.
# Cell survival rate can represent the toxicity of cationic lipids to cells. The higher the cell survival rate, the lower the toxicity to cells.
# [3] = Particle size and polydispersity index (PDI) of lipid nanoparticles by dynamic light scattering; format: physicochemical; conditions: LNP formulation prepared from the cationic lipid, 25° C.
# Procedure: The particle size and polydispersity index (PDI) were determined by dynamic light scattering using Malvern laser particle size analyzer.
# 10 μL of the liposome solution was weighed, diluted to 1 mL with RNase-free deionized water, and added to the sample pool. Each sample was measured in triplicate. The measurement conditions were: […] scattering angle, and 25° C.
compound,measurement,setting,value
"CCCCCCCCCCOC(=O)CCCN(CCCCCC(=O)OCCC(CCCCCC)CCCCCC)C[C@H](O)CN(CC)CCO [YK-309, (S)-3-hexylnonyl-6-(4-(decyloxy)-4-oxobutyl)(2-hydroxy-3-(((2-hydroxyethyl)(ethyl)amino)propyl)amino)hexanoate]",Relative light unit (RLU),"293T cells [1]; LNP formulation of Fluc-mRNA, 96-well plate, 24 hours",125370 RLU
same,Multiples (YK-305),293T cells [1]; RLU of YK-305 / RLU of the lipid of the line,218.62
same,Multiples (YK-310),293T cells [1]; RLU of YK-310 / RLU of the lipid of the line,205.77
same,Multiples (YK-312),293T cells [1]; RLU of YK-312 / RLU of the lipid of the line,160.71
same,Ratio relative to SM-102,"293T cells [1]; RLU of the lipid / RLU of SM-102, times that of SM-102",0.08
same,average radiation intensity,female BALB/C mice; 6 h after intramuscular injection,65680
same,average radiation intensity,female BALB/C mice; 24 h after intramuscular injection,16820
same,average radiation intensity,female BALB/C mice; 48 h after intramuscular injection,6551
same,average radiation intensity,female BALB/C mice; 7 d after intramuscular injection,1256
same,Cell survival rate (%),293T cells [2],31.61%
same,PDI (%),[3],27.6%
same,Particle size (nm),[3],232 nm
